Measured values: patent EP0134485A2, “5-Cyclopropyl-5,8-dihydro-8-oxo-1,3-dioxolo-(4,5-g) quinoline-7-carboxylic acid, process for its preparation and bactericidal agent containing it” (BAYER AG, priority 1983, dated 1985)
≈ marks a conversion by molar mass, not a printed value.

Tests used:
Assay in all cases: Agar dilution test (MIC), Isosensitest medium
Type in all cases: cell-based
E. coli 455/7 = details: Escherichia coli, strain E. coli 455/7, Denley multipoint inoculator, read-out: MHK
From the text: (§1) In der nachstehenden Tabelle sind die MHK-Werte der erfindungsgemäßen Verbindung angegeben.

Pseudom. W. = details: strain Pseudom. W., Denley multipoint inoculator, read-out: MHK
From the text: as §1

Serratia 16040 = details: strain Serratia 16040, Denley multipoint inoculator, read-out: MHK
From the text: as §1

Proteus mir. 8223 = details: strain Proteus mir. 8223, Denley multipoint inoculator, read-out: MHK
From the text: as §1

Staph. aur. 133 = details: strain Staph. aur. 133, Denley multipoint inoculator, read-out: MHK
From the text: as §1

Klebsiella 6179 = details: strain Klebsiella 6179, Denley multipoint inoculator, read-out: MHK
From the text: as §1

Proteus 8175 = details: strain Proteus 8175, Denley multipoint inoculator, read-out: MHK
From the text: as §1

Streptococc. faec. 9790 = details: strain Streptococc. faec. 9790, Denley multipoint inoculator, read-out: MHK
From the text: as §1

O=C(O)c1cn(C2CC2)c2cc3c(cc2c1=O)OCO3 [I, 5-Cyclopropyl-5,8-dihydro-8-oxo-1,3-dioxolo[4,5-g]chinolin-7-carbonsäure]
MIC (E. coli 455/7): 16 µg/mL (≈ 58.6 µM) | MIC (Pseudom. W.): 4 µg/mL (≈ 14.6 µM) | MIC (Serratia 16040): 4 µg/mL (≈ 14.6 µM) | MIC (Proteus mir. 8223): 8 µg/mL (≈ 29.3 µM) | MIC (Staph. aur. 133): 0.25 µg/mL (≈ 0.915 µM) | MIC (Klebsiella 6179): 0.06 µg/mL (≈ 0.22 µM) | MIC (Proteus 8175): 0.03 µg/mL (≈ 0.11 µM) | MIC (Streptococc. faec. 9790): 8 µg/mL (≈ 29.3 µM)
